The compounds below were run on pale smartweed (Po) (assay: Test Example 9: crop plant selectivity by upland field foliage treatment (wheat), herbicidal effects). Conditions: dose 1.6 g ai/10a, 14th day after treatment.
Format: in vivo
Set-up: scale not given here
Method in brief: (§1)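 Read-out: weed control and wheat injury, rated by a defined scoring standard 14 days after foliar application.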
With `Cn1c(C(F)(F)F)ccc(-c2cc(OCCCF)c(Cl)cc2F)c1=O` [Compound 1-204] the “Herbicidal effects Po” value was 5.

What follows are compounds tested on common lambsquarters (Ch) in the same assay as above. Conditions: dose 1.6 g ai/10a, 14th day after treatment.
Format: in vivo
Set-up: scale not given here
Method in brief: as §1
For `Cn1c(C(F)(F)F)ccc(-c2cc(OCCCF)c(Cl)cc2F)c1=O` [Compound 1-204], the “Herbicidal effects Ch” value was 5.

The compounds below were run on China jute (Ab) in the same assay as above. Conditions: dose 1.6 g ai/10a, 14th day after treatment.
Format: in vivo
Set-up: scale not given here
Method in brief: as §1
For `Cn1c(C(F)(F)F)ccc(-c2cc(OCCCF)c(Cl)cc2F)c1=O` [Compound 1-204], the “Herbicidal effects Ab” value was 5.

These compounds were tested on slender amaranth (Am) in the same assay as above. Conditions: dose 1.6 g ai/10a, 14th day after treatment.
Format: in vivo
Set-up: scale not given here
Method in brief: as §1
In the case of `Cn1c(C(F)(F)F)ccc(-c2cc(OCCCF)c(Cl)cc2F)c1=O` [Compound 1-204], the “Herbicidal effects Am” value is reported as 5.

The compounds below were run on barnyardgrass (Ec) (assay: Test Example 1: herbicidal effects by paddy field soil treatment). Conditions: 100 g of the active ingredient per 10 ares, 21st day after the application, index 0-5 of Table 47.
Format: in vivo
Method in brief: (§2)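 Flooded paddy-soil pots (3 cm water) sown after puddling/leveling; treatment 100 g a.i./10 ares; greenhouse culture; herbicidal effect rated visually on a scoring scale at 21 d post-application.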
For `Cn1c(C(F)(F)F)ccc(-c2cc(OCCCF)c(Cl)cc2F)c1=O` [Compound 1-204], the “Herbicidal effects Ec” value was 5.

The compounds below were run on bulrush (Sc) in the same assay as above. Conditions: 100 g of the active ingredient per 10 ares, 21st day after the application, index 0-5 of Table 47.
Format: in vivo
Method in brief: as §2
In the case of `Cn1c(C(F)(F)F)ccc(-c2cc(OCCCF)c(Cl)cc2F)c1=O` [Compound 1-204], the “Herbicidal effects Sc” value is reported as 5.

The compounds below were run on monochoria (Mo) in the same assay as above. Conditions: 100 g of the active ingredient per 10 ares, 21st day after the application, index 0-5 of Table 47.
Format: in vivo
Method in brief: as §2
`Cn1c(C(F)(F)F)ccc(-c2cc(OCCCF)c(Cl)cc2F)c1=O` [Compound 1-204] was tested, and the “Herbicidal effects Mo” value was 5.

Each compound was assayed on barnyardgrass (Ec) (assay: Test Example 3: herbicidal effects by upland field foliage treatment). Conditions: 100 g active ingredient per 10 ares, evaluated 14th day after treatment.
Format: in vivo
Set-up: scale not given here
Method in brief: (§3)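 Scoring used a standard effect scale on the 14th day post-treatment, with plants held in a greenhouse throughout. Foliar application was made to weeds raised from seed in sand-filled pots for 2 weeks.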
`Cn1c(C(F)(F)F)ccc(-c2cc(OCCCF)c(Cl)cc2F)c1=O` [Compound 1-204] was tested, and the “Herbicidal effects Ec” value was 5.

Each compound was assayed on Diaitaria ciliaris (Di) in the same assay as above. Conditions: 100 g active ingredient per 10 ares, evaluated 14th day after treatment.
Format: in vivo
Set-up: scale not given here
Method in brief: as §3
With `Cn1c(C(F)(F)F)ccc(-c2cc(OCCCF)c(Cl)cc2F)c1=O` [Compound 1-204] the “Herbicidal effects Di” value was 5.

Each compound was assayed on pale smartweed (Po) in the same assay as above. Conditions: 100 g active ingredient per 10 ares, evaluated 14th day after treatment.
Format: in vivo
Set-up: scale not given here
Method in brief: as §3
`Cn1c(C(F)(F)F)ccc(-c2cc(OCCCF)c(Cl)cc2F)c1=O` [Compound 1-204] was tested, and the “Herbicidal effects Po” value was 5.

What follows are compounds tested on common lambsquarters (Ch) in the same assay as above. Conditions: 100 g active ingredient per 10 ares, evaluated 14th day after treatment.
Format: in vivo
Set-up: scale not given here
Method in brief: as §3
In the case of `Cn1c(C(F)(F)F)ccc(-c2cc(OCCCF)c(Cl)cc2F)c1=O` [Compound 1-204], the “Herbicidal effects Ch” value is reported as 5.

What follows are compounds tested on rice flatsedge (Ci) in the same assay as above. Conditions: 100 g active ingredient per 10 ares, evaluated 14th day after treatment.
Format: in vivo
Set-up: scale not given here
Method in brief: as §3
With `Cn1c(C(F)(F)F)ccc(-c2cc(OCCCF)c(Cl)cc2F)c1=O` [Compound 1-204] the “Herbicidal effects Ci” value was 5.

The compounds below were run on slender amaranth (Am) in the same assay as above. Conditions: 100 g active ingredient per 10 ares, evaluated 14th day after treatment.
Format: in vivo
Set-up: scale not given here
Method in brief: as §3
With `Cn1c(C(F)(F)F)ccc(-c2cc(OCCCF)c(Cl)cc2F)c1=O` [Compound 1-204] the “Herbicidal effects Am” value was 5.

These compounds were tested on barnyardgrass (Ec) (assay: Test Example 2: herbicidal effects by upland field soil treatment). Conditions: 100 g of the active ingredient per 10 ares, evaluated on the 21st day after application.
Format: in vivo
From the text: (§4) (Test on Herbicidal Effects by Upland Field Soil Treatment)
With `Cn1c(C(F)(F)F)ccc(-c2cc(OCCCF)c(Cl)cc2F)c1=O` [Compound 1-204] the “Herbicidal effects Ec” value was 5.

What follows are compounds tested on pale smartweed (Po) in the same assay as above. Conditions: 100 g of the active ingredient per 10 ares, evaluated on the 21st day after application.
Format: in vivo
From the text: as §4
`Cn1c(C(F)(F)F)ccc(-c2cc(OCCCF)c(Cl)cc2F)c1=O` [Compound 1-204] was tested, and the “Herbicidal effects Po” value was 5.

These compounds were tested on Digitaria ciliaris (Di) in the same assay as above. Conditions: 100 g of the active ingredient per 10 ares, evaluated on the 21st day after application.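 Note: grade of growth control; 5 = at least 90%; 4 = 70 to 90%; 3 = 50 to 70%; 2 = 30 to 50%; 1 = 10 to 30%; 0 = under 10%.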
Format: in vivo
From the text: as §4
For `Cn1c(C(F)(F)F)ccc(-c2cc(OCCCF)c(Cl)cc2F)c1=O` [Compound 1-204], the “Herbicidal effects Di” value was 5.

Each compound was assayed on common lambsquarters (Ch) in the same assay as above. Conditions: 100 g of the active ingredient per 10 ares, evaluated on the 21st day after application.
Format: in vivo
From the text: as §4
For `Cn1c(C(F)(F)F)ccc(-c2cc(OCCCF)c(Cl)cc2F)c1=O` [Compound 1-204], the “Herbicidal effects Ch” value was 5.

What follows are compounds tested on rice flatsedge (Ci) in the same assay as above. Conditions: 100 g of the active ingredient per 10 ares, evaluated on the 21st day after application.
Format: in vivo
From the text: as §4
In the case of `Cn1c(C(F)(F)F)ccc(-c2cc(OCCCF)c(Cl)cc2F)c1=O` [Compound 1-204], the “Herbicidal effects Ci” value is reported as 5.

These compounds were tested on slender amaranth (Am) in the same assay as above. Conditions: 100 g of the active ingredient per 10 ares, evaluated on the 21st day after application.
Format: in vivo
From the text: as §4
`Cn1c(C(F)(F)F)ccc(-c2cc(OCCCF)c(Cl)cc2F)c1=O` [Compound 1-204] was tested, and the “Herbicidal effects Am” value was 5.

Each compound was assayed on corn (Ze) (assay: Test Example 11: crop plant selectivity by upland field foliage treatment (corn), phytotoxicity). Conditions: upland field foliage treatment, dose 1.6 g ai/10a, 14th day after treatment.
Description: (§5) (Test on Crop Plant Selectivity by Upland Field Foliage Treatment)
(§6) In a plastic pot (surface area: 600 cm^2) filled with sand, corn (Ze), pale smartweed (Po), slender amaranth (Am), common lambsquarters (Ch) and China jute (Ab) were sown and cultured in a green house for 2 weeks. […] The plants were then cultured in a green house, and the evaluation of the herbicidal effects and phytotoxicity was conducted on the 14th day after the treatment in accordance with the standards as identified in Table 47.
For `Cn1c(C(F)(F)F)ccc(-c2cc(OCCCF)c(Cl)cc2F)c1=O` [Compound 1-204], the “Phytotoxicity Ze” value was 2.

What follows are compounds tested on wheat (Tr) (assay: Test Example 9: crop plant selectivity by upland field foliage treatment (wheat), phytotoxicity). Conditions: dose 1.6 g ai/10a, 14th day after treatment.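 Note: grade of crop injury; 5 = at least 90%; 4 = 70 to 90%; 3 = 50 to 70%; 2 = 30 to 50%; 1 = 10 to 30%; 0 = under 10%.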
Method in brief: as §1
`Cn1c(C(F)(F)F)ccc(-c2cc(OCCCF)c(Cl)cc2F)c1=O` [Compound 1-204] was tested, and the “Phytotoxicity Tr” value was 2.

What follows are compounds tested on pale smartweed (Po) (assay: Test Example 11: crop plant selectivity by upland field foliage treatment (corn), herbicidal effects). Conditions: upland field foliage treatment (corn test), dose 1.6 g ai/10a, 14th day after treatment.
Format: in vivo
Set-up: scale not given here
Description: as §5, §6
In the case of `Cn1c(C(F)(F)F)ccc(-c2cc(OCCCF)c(Cl)cc2F)c1=O` [Compound 1-204], the “Herbicidal effects Po” value is reported as 5.

What follows are compounds tested on common lambsquarters (Ch) in the same assay as above. Conditions: upland field foliage treatment (corn test), dose 1.6 g ai/10a, 14th day after treatment.
Format: in vivo
Set-up: scale not given here
Description: as §5, §6
For `Cn1c(C(F)(F)F)ccc(-c2cc(OCCCF)c(Cl)cc2F)c1=O` [Compound 1-204], the “Herbicidal effects Ch” value was 5.

Each compound was assayed on China jute (Ab) in the same assay as above. Conditions: upland field foliage treatment (corn test), dose 1.6 g ai/10a, 14th day after treatment.
Format: in vivo
Set-up: scale not given here
Description: as §5, §6
For `Cn1c(C(F)(F)F)ccc(-c2cc(OCCCF)c(Cl)cc2F)c1=O` [Compound 1-204], the “Herbicidal effects Ab” value was 5.

What follows are compounds tested on slender amaranth (Am) in the same assay as above. Conditions: upland field foliage treatment (corn test), dose 1.6 g ai/10a, 14th day after treatment.
Format: in vivo
Set-up: scale not given here
Description: as §5, §6
In the case of `Cn1c(C(F)(F)F)ccc(-c2cc(OCCCF)c(Cl)cc2F)c1=O` [Compound 1-204], the “Herbicidal effects Am” value is reported as 5.

From US6472348B1, “Pyridone derivatives and herbicides” (Kumiai Chemical Industry Co., Ltd., priority 1996, dated 2002)
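Throughout, for Herbicidal effects Mo: grade of growth control; 5 = at least 90%; 4 = 70 to 90%; 3 = 50 to 70%; 2 = 30 to 50%; 1 = 10 to 30%; 0 = under 10%.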
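Throughout, for Herbicidal effects Sc: grade of growth control; 5 = at least 90%; 4 = 70 to 90%; 3 = 50 to 70%; 2 = 30 to 50%; 1 = 10 to 30%; 0 = under 10%.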
